Results published in the NIST ThermoML archive (doi:10.1021/je900482x).

Assay: isobaric coefficient of expansion
Settings: Liquid, Microcalorimeter

CCCCCC[n+]1ccn(C)c1.O=S(=O)([N-]S(=O)(=O)C(F)(F)F)C(F)(F)F
isobaric coefficient of expansion
Settings | 5000 kPa | 10000 kPa | 15000 kPa | 20000 kPa | 25000 kPa | 30000 kPa | 35000 kPa | 40000 kPa | 45000 kPa | 50000 kPa
278.15 K | 0.000674 1/K | 0.000662 1/K | 0.000654 1/K | 0.000641 1/K | 0.000635 1/K | 0.000628 1/K | 0.000619 1/K | 0.000612 1/K | 0.000602 1/K | 0.000596 1/K
288.15 K | 0.000668 1/K | 0.000658 1/K | 0.000647 1/K | 0.000637 1/K | 0.00063 1/K | 0.00062 1/K | 0.000614 1/K | 0.000604 1/K | 0.000597 1/K | 0.000592 1/K
298.15 K | 0.000664 1/K | 0.000654 1/K | 0.000643 1/K | 0.000633 1/K | 0.000626 1/K | 0.000615 1/K | 0.000605 1/K | 0.000596 1/K | 0.00059 1/K | 0.000584 1/K
308.15 K | 0.000659 1/K | 0.000648 1/K | 0.000637 1/K | 0.000628 1/K | 0.000618 1/K | 0.000609 1/K | 0.0006 1/K | 0.000594 1/K | 0.000585 1/K | 0.000577 1/K
318.15 K | 0.000654 1/K | 0.000647 1/K | 0.000637 1/K | 0.000623 1/K | 0.000615 1/K | 0.000606 1/K | 0.000597 1/K | 0.000588 1/K | 0.000578 1/K | 0.000571 1/K
328.15 K | 0.00065 1/K | 0.000639 1/K | 0.000632 1/K | 0.000621 1/K | 0.000609 1/K | 0.000599 1/K | 0.000591 1/K | 0.000582 1/K | 0.000574 1/K | 0.000567 1/K
338.15 K | 0.000649 1/K | 0.000637 1/K | 0.000627 1/K | 0.000616 1/K | 0.000605 1/K | 0.000597 1/K | 0.000588 1/K | 0.00058 1/K | 0.000571 1/K | 0.000567 1/K
348.15 K | 0.000644 1/K | 0.000635 1/K | 0.000623 1/K | 0.00061 1/K | 0.000602 1/K | 0.000592 1/K | 0.000584 1/K | 0.000575 1/K | 0.000567 1/K | 0.000559 1/K

CCCCCCn1cc[n+](C)c1.F[B-](F)(F)F [1-hexyl-3-methylimidazolium tetrafluoroborate]
isobaric coefficient of expansion
Settings | 5000 kPa | 10000 kPa | 15000 kPa | 20000 kPa | 25000 kPa | 30000 kPa | 35000 kPa | 40000 kPa | 45000 kPa | 50000 kPa
278.15 K | 0.000621 1/K | 0.000613 1/K | 0.000605 1/K | 0.000598 1/K | 0.00059 1/K | 0.000584 1/K | 0.000576 1/K | 0.000572 1/K | 0.000562 1/K | 0.000558 1/K
288.15 K | 0.000616 1/K | 0.000606 1/K | 0.0006 1/K | 0.000593 1/K | 0.000586 1/K | 0.000579 1/K | 0.000572 1/K | 0.000565 1/K | 0.000558 1/K | 0.000555 1/K
298.15 K | 0.00061 1/K | 0.000603 1/K | 0.000595 1/K | 0.000586 1/K | 0.00058 1/K | 0.000573 1/K | 0.000564 1/K | 0.000558 1/K | 0.000552 1/K | 0.000547 1/K
308.15 K | 0.000605 1/K | 0.000596 1/K | 0.000589 1/K | 0.000579 1/K | 0.000572 1/K | 0.000565 1/K | 0.00056 1/K | 0.000553 1/K | 0.000545 1/K | 0.000541 1/K
318.15 K | 0.000599 1/K | 0.000594 1/K | 0.000585 1/K | 0.000573 1/K | 0.000566 1/K | 0.00056 1/K | 0.000554 1/K | 0.000545 1/K | 0.000537 1/K | 0.000532 1/K
328.15 K | 0.000594 1/K | 0.000587 1/K | 0.00058 1/K | 0.000572 1/K | 0.000562 1/K | 0.000555 1/K | 0.000549 1/K | 0.00054 1/K | 0.000536 1/K | 0.000531 1/K
338.15 K | 0.000591 1/K | 0.000584 1/K | 0.000575 1/K | 0.000567 1/K | 0.000558 1/K | 0.000553 1/K | 0.000544 1/K | 0.000538 1/K | 0.000532 1/K | 0.000528 1/K
348.15 K | 0.000588 1/K | 0.000582 1/K | 0.000572 1/K | 0.000563 1/K | 0.000555 1/K | 0.000548 1/K | 0.000543 1/K | 0.000535 1/K | 0.000529 1/K | 0.000522 1/K

CCCC[n+]1cccc(C)c1.F[B-](F)(F)F [1-butyl-3-methylpyridinium tetrafluoroborate]
isobaric coefficient of expansion
Settings | 5000 kPa | 10000 kPa | 15000 kPa | 20000 kPa | 25000 kPa | 30000 kPa | 35000 kPa | 40000 kPa | 45000 kPa | 50000 kPa
278.15 K | 0.000607 1/K | 0.000601 1/K | 0.000596 1/K | 0.000591 1/K | 0.000584 1/K | 0.000581 1/K | 0.000576 1/K | 0.00057 1/K | 0.000566 1/K | 0.00056 1/K
288.15 K | 0.0006 1/K | 0.000593 1/K | 0.000588 1/K | 0.000585 1/K | 0.000581 1/K | 0.000575 1/K | 0.000569 1/K | 0.000564 1/K | 0.000562 1/K | 0.000558 1/K
298.15 K | 0.000594 1/K | 0.000589 1/K | 0.000582 1/K | 0.000577 1/K | 0.000572 1/K | 0.000566 1/K | 0.00056 1/K | 0.000556 1/K | 0.000551 1/K | 0.000549 1/K
308.15 K | 0.000588 1/K | 0.000582 1/K | 0.000576 1/K | 0.000569 1/K | 0.000563 1/K | 0.00056 1/K | 0.000555 1/K | 0.000551 1/K | 0.000545 1/K | 0.000541 1/K
318.15 K | 0.00058 1/K | 0.000578 1/K | 0.000573 1/K | 0.000565 1/K | 0.00056 1/K | 0.000554 1/K | 0.000551 1/K | 0.000545 1/K | 0.000539 1/K | 0.000535 1/K
328.15 K | 0.000575 1/K | 0.00057 1/K | 0.000568 1/K | 0.00056 1/K | 0.000554 1/K | 0.000549 1/K | 0.000545 1/K | 0.000539 1/K | 0.000535 1/K | 0.000531 1/K
338.15 K | 0.000571 1/K | 0.000567 1/K | 0.000562 1/K | 0.000554 1/K | 0.000549 1/K | 0.000545 1/K | 0.000539 1/K | 0.000536 1/K | 0.00053 1/K | 0.000529 1/K
348.15 K | 0.000568 1/K | 0.000562 1/K | 0.000557 1/K | 0.000554 1/K | 0.000548 1/K | 0.000542 1/K | 0.00054 1/K | 0.000534 1/K | 0.000529 1/K | 0.000526 1/K
